From article PMC3510655 (Chemical science (Royal Society of Chemistry : 2010), 2013)

Biological target: T1, quinone reductase 2 (QR2) (Homo sapiens, UniProt P16083)
T1 sequence (P16083 1-231): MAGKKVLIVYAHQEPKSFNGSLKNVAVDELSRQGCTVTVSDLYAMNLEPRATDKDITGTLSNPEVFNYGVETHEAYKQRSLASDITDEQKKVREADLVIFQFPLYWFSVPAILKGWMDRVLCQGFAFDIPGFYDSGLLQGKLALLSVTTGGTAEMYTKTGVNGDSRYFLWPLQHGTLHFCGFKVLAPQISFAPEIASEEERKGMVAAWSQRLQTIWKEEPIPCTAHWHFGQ
Test: QR2 inhibition assay using human recombinant protein
Type: biochemical
Settings: authors' assay system

Substance	IC50 against QR2
Ammosamide E [compound 1]	nearly equipotent to 4
Ammosamide H [compound 10]	irreproducible results
